Key:
neprilysin (NEP) = experiment: QPCR of neprilysin mRNA in brain samples; type: in vivo, mice; settings: cortical samples, versus vehicle
Protocol: Total cytoplasmic RNA from tissues was isolated using TRIZOL reagent, (Invitrogen/GIBCO); aliquots were converted to cDNA using random hexamer primers, and mRNA levels were estimated by quantitative touchdown PCR (QPCR). PCR conditions were 35 cycles of denaturation at 94° C. for 10 s; annealing at 58-64° C. for 15 s; and extension at 72° C. for 20 s on a Corbett Rotorgene Real-Time PCR unit (Corbett, Australia). PCR was done using Taq DNA Polymerase (Invitrogen), and contained SYBR Green (SybrGreen1 10,000× concentrate, diluted 1:10,000; Molecular Probes, Eugene, Oreg.). Relative mRNA concentrations were calculated from the takeoff point of reactions using manufacturer's software, and were normalized to α-tubulin, β-actin, and glyceraldehyde-3-phosphate dehydrogenase (GDH). Melting curve analysis and agarose gel electrophoresis ensured production of single and corrected size products. The primers used were: […]
Comparative real time RT-PCR (or quantitative PCR, QPCR) was used to measure mRNA levels of the Aβ degrading enzymes neprilysin (Nep) and insulin degrading enzyme (IDE) in brain samples from vehicle and DSP4 treated mice (FIG. 4A). […] To assess the effects of dose, mouse neuronal N2A cells were incubated with increasing does of NA for 24 hr after which NEP activity was measured (FIG. 4D, data is mean±sd and is from n=3 samples). […]

TgAPP H6 mice = experiment: Amyloid plaque burden (Aβ1-42 staining) in brain sections of TgAPP H6 mice; type: in vivo
Source text: Transgenic mice (H6) overexpressing the Indiana V717F mutation of human APP under control of the PDGFR promoter (Mucke et al., 2000, “High-level neuronal expression of abeta 1-42 in wild-type human amyloid protein precursor transgenic mice: synaptotoxicity without plaque formation,” J Neurosci 20:4050-8) were obtained from Dr. Lennart Mucke (J. David Gladstone Institute, San Francisco, Calif.). Male hemizygous H6 mice were bred to wild type C57BL6 (Charles River Breeding) females to obtain hemizygous progeny. Genotype was verified by PCR analysis of tail DNA using the forward primer 5′-GGTGAGTTTGTAAGTGATGCC-3′ (SEQ ID NO:1) and reverse primer 5′-TCTTCTTCTTCCACCTCAGC-3′ (SEQ ID NO:2). Animals were housed in groups of four under standard conditions with full access to food and water.
Hemizygous male H6 mice (aged 3 to 4 months) were injected with vehicle or with DSP4 (5 mg per kg; i.p., every two weeks) and all mice were sacrificed at age 9 months. This protocol (a low, chronic dose) results in 70% loss of LC noradrenergic neurons. Brains were dissected, the left hemispheres were fast frozen in isopentane at −30° C. and stored at −80° C. for subsequent protein and RNA studies. The right hemispheres were processed for immunohistochemistry.
TgAPP H6 mice were treated with DSP4 (5 mg/kg every two weeks) beginning at age 3-4 months, and brain sections analyzed at age 9 months (FIGS. 1A-1B). Hemibrains were fixed overnight in 4% paraformaldehyde in 0.1M phosphate buffer, then overnight in 10% sucrose in 0.1M phosphate buffer, and then frozen in isopentane at −30° C. Serial sections (35 um thick) were prepared on a cryostat, and stored in cryoprotective solution (0.1M phosphate buffer: ethyleneglycol: glycerol 30:40:30) at −20° C. For Aβ1-42 staining, sections were treated with formic acid (95%, 3 min), incubated overnight at 4° C. with primary antibody directed against Aβ1-42 (1:4000 dilution, Calbiochem FCA3542 rabbit polytonal antibody raised against a synthetic peptide corresponding to amino acids 706-713 of human APP), washed, then incubated with anti-rabbit biotinylated secondary antibody (Vector BA-1000, diluted 1:400) and visualized using an ABC kit (Vector). For quantification of Aβ plaques, for each animal (n=6 vehicle treated and n=6 DSP4 treated mice) 8 stained, serial sections separated by 210 μm and spanning approximately 1.5 mm between Bregma points −1.50 mm to −3.00 mm were mounted onto glass slides and imaged with a Zeiss Axiophot 2 microscope, equipped with an Axiocam B&W MRm camera. Sections were viewed at 100× using a 10× objective, and the average plaque number and % area stained (relative to the total section area of 21 mm^2) per section were determined. The threshold of brightness intensity (range black=0 to white=255) used for selection of plaques was established by determining average pixel intensity from 3 areas devoid of staining, and then adjusting that value to maximize inclusion of all visibly-stained plaques while minimizing inclusion of background areas. This value was used for all sections (all stained at the same time). For all sections, visual inspection following automated counting was done to ensure exclusion of meninges, ventricular space, or other artifacts.
Representative sections from vehicle (FIG. 1A, containing 19 plaques) and DSP4 treated (B, containing 64 plaques) mice are shown in FIG. 1. Plaque burden (number and area stained) was quantified using Axiovision 4.5 Measurement Wizard software. Sections were viewed at 100× using a 10× objective, and the average plaque number (FIG. 1C) and % area stained (FIG. 1D, relative to the total section area of 21 mm^2) per section determined (n=8 sections per animal). The data was analyzed by two-tailed t-test assuming equal variances; *, P <0.05. The relative size distribution for all plaques detected in vehicle (n=626) and DSP4 treated (n=3009) brain sections is shown (FIG. 1E). […]

Structure (SMILES): CCN(CCCl)Cc1ccccc1Br [DSP4, N-(2-chloroethyl)-N-ethyl-2-bromobenzylamine]
- reduction of NEP mRNA levels (neprilysin (NEP)): approximately 20%
- average plaque number (TgAPP H6 mice; DSP4 5 mg/kg every two weeks, age 9 months, vehicle 13.5±3): 62.7±18 per section
- average area stained (TgAPP H6 mice; DSP4 5 mg/kg every two weeks, age 9 months, vehicle 1,810±464): 11,100±3,000 μm^2
- plaques >5,000 μm^2 out of all plaques detected (TgAPP H6 mice; DSP4 sections, vehicle 1/626): 16/3009
- relative plaque size distribution (TgAPP H6 mice; age 9 months): did not significantly alter
- increase in plaque number (TgAPP H6 mice; age 9 months, versus vehicle): 5 fold
- area stained as % total sectional area (TgAPP H6 mice; age 9 months, vehicle 0.008%): 0.051%
- plaque appearance in non-transgenic wild type littermates (TgAPP H6 mice; data not shown): did not induce plaque appearance
- average plaque size (TgAPP H6 mice; n=3009 plaques, vehicle 135±18, increase not statistically significant): 174±8 μm^2
- plaques with size greater than 7,000 μm^2 (TgAPP H6 mice; out of 3009 counted): 13 out of 3009
- plaques in representative section (TgAPP H6 mice; representative section FIG. 1B, vehicle 19): 64 plaques
